{"source": "patent US20040063662A1", "about": "“Selenophene anti-tumor agents” (priority 1996, published 2004)", "key": {"HL-60(TB)": {"system": "HL-60(TB)", "test": "NCI human tumor cell panel: HL-60(TB) (Leukemia)", "format": "cell-based"}, "K-562": {"system": "K-562", "test": "NCI human tumor cell panel: K-562 (Leukemia)", "format": "cell-based"}, "MOLT-4": {"system": "MOLT-4", "test": "NCI human tumor cell panel: MOLT-4 (Leukemia)", "format": "cell-based"}, "A549/ATCC": {"system": "A549/ATCC", "test": "NCI human tumor cell panel: A549/ATCC (Non-Small Cell Lung Cancer)", "format": "cell-based"}, "EKVX": {"system": "EKVX", "test": "NCI human tumor cell panel: EKVX (Non-Small Cell Lung Cancer)", "format": "cell-based"}, "NCI-H226": {"system": "NCI-H226", "test": "NCI human tumor cell panel: NCI-H226 (Non-Small Cell Lung Cancer)", "format": "cell-based"}, "NCI-H322M": {"system": "NCI-H322M", "test": "cells", "format": "cell-based", "settings": "Homo sapiens"}, "HCC-2998": {"system": "HCC-2998", "test": "NCI human tumor cell panel: HCC-2998 (Colon Cancer)", "format": "cell-based"}, "HCT-116": {"system": "HCT-116", "test": "NCI human tumor cell panel: HCT-116 (Colon Cancer)", "format": "cell-based"}, "HCT-15": {"system": "HCT-15", "test": "NCI human tumor cell panel: HCT-15 (Colon Cancer)", "format": "cell-based"}, "HT29": {"system": "HT29", "test": "NCI human tumor cell panel: HT29 (Colon Cancer)", "format": "cell-based"}, "KM12": {"system": "KM12", "test": "NCI human tumor cell panel: KM12 (Colon Cancer)", "format": "cell-based"}, "SF-268": {"system": "SF-268", "test": "NCI human tumor cell panel: SF-268 (CNS Cancer)", "format": "cell-based"}, "SNB-19": {"system": "SNB-19", "test": "NCI human tumor cell panel: SNB-19 (CNS Cancer)", "format": "cell-based"}, "U251": {"system": "U251", "test": "NCI human tumor cell panel: U251 (CNS Cancer)", "format": "cell-based"}, "MALME-3M": {"system": "MALME-3M", "test": "NCI human tumor cell panel: MALME-3M (Melanoma)", "format": "cell-based", "settings": "Malme-3M"}, "SK-MEL-28": {"system": "SK-MEL-28", "test": "NCI human tumor cell panel: SK-MEL-28 (Melanoma)", "format": "cell-based"}, "OVCAR-3": {"system": "OVCAR-3", "test": "NCI human tumor cell panel: OVCAR-3 (Ovarian Cancer)", "format": "cell-based"}, "ACHN": {"system": "ACHN", "test": "NCI human tumor cell panel: ACHN (Renal Cancer)", "format": "cell-based"}, "CAKI-1": {"system": "CAKI-1", "test": "NCI human tumor cell panel: CAKI-1 (Renal Cancer)", "format": "cell-based"}, "RXF-393": {"system": "RXF-393", "test": "NCI human tumor cell panel: RXF-393 (Renal Cancer)", "format": "cell-based"}, "TK-10": {"system": "TK-10", "test": "NCI human tumor cell panel: TK-10 (Renal Cancer)", "format": "cell-based"}, "PC-3": {"system": "PC-3", "test": "NCI human tumor cell panel: PC-3 (Prostate Cancer)", "format": "cell-based"}, "MDA-MB-231/ATCC": {"system": "MDA-MB-231/ATCC", "test": "NCI human tumor cell panel: MDA-MB-231/ATCC (Breast Cancer)", "format": "cell-based", "settings": "Homo sapiens, MDA-MB-231, MDA-MB-231/ATCC"}, "NCI-H522": {"system": "NCI-H522", "test": "NCI human tumor cell panel: NCI-H522 (Non-Small Cell Lung Cancer)"}, "[1]": {"system": "panel of sixty different human tumor cell lines", "test": "NCI human tumor cell panel: whole panel (mean graph summary)", "settings": "for CC50: Homo sapiens"}, "[2]": {"settings": "read-out: Log10 GI50 (converted)"}, "[3]": {"settings": "read-out: Log10 TGI (converted)"}}, "note": "Read-outs that look alike come from different tables or passages of the source.", "data": [{"smiles": "OCc1ccc(-c2ccc(-c3ccc(CO)[se]3)s2)[se]1", "note": "[compound 676632]", "values": [{"measurement": "GI50", "setting": "HL-60(TB); [2]", "result": "> 100", "unit": "µM"}, {"measurement": "IC (TGI)", "setting": "HL-60(TB); read-out: Log10 TGI", "result": "> 100", "unit": "µM"}, {"measurement": "GI50", "setting": "K-562; K562, K-562, read-out: Log10 GI50 (converted)", "result": 0.0479, "unit": "µM"}, {"measurement": "IC (TGI)", "setting": "K-562; K562, K-562, read-out: Log10 TGI (converted)", "result": "> 100", "unit": "µM"}, {"measurement": "GI50", "setting": "MOLT-4; MOLT-4, read-out: Log10 GI50 (converted)", "result": "> 100", "unit": "µM"}, {"measurement": "IC (TGI)", "setting": "MOLT-4; MOLT-4, read-out: Log10 TGI (converted)", "result": "> 100", "unit": "µM"}, {"measurement": "GI50", "setting": "A549/ATCC; [2]", "result": 2.63, "unit": "µM"}, {"measurement": "IC (TGI)", "setting": "A549/ATCC; [3]", "result": "> 100", "unit": "µM"}, {"measurement": "GI50", "setting": "EKVX; [2]", "result": 50.1, "unit": "µM"}, {"measurement": "IC (TGI)", "setting": "EKVX; [3]", "result": "> 100", "unit": "µM"}, {"measurement": "GI50", "setting": "NCI-H226; NCI-H226, read-out: Log10 GI50 (converted)", "result": 0.0195, "unit": "µM"}, {"measurement": "IC (TGI)", "setting": "NCI-H226; NCI-H226, read-out: Log10 TGI (converted)", "result": 0.0537, "unit": "µM"}, {"measurement": "GI50", "setting": "NCI-H322M; [2]", "result": "> 100", "unit": "µM"}, {"measurement": "IC (TGI)", "setting": "NCI-H322M; [3]", "result": "> 100", "unit": "µM"}, {"measurement": "GI50", "setting": "HCC-2998; HCC-2998, read-out: Log10 GI50 (converted)", "result": 0.178, "unit": "µM"}, {"measurement": "IC (TGI)", "setting": "HCC-2998; HCC-2998, read-out: Log10 TGI (converted)", "result": 0.55, "unit": "µM"}, {"measurement": "GI50", "setting": "HCT-116; HCT-116, read-out: Log10 GI50 (converted)", "result": "> 100", "unit": "µM"}, {"measurement": "IC (TGI)", "setting": "HCT-116; HCT-116, read-out: Log10 TGI (converted)", "result": "> 100", "unit": "µM"}, {"measurement": "GI50", "setting": "HCT-15; HCT-15, read-out: Log10 GI50 (converted)", "result": 0.0447, "unit": "µM"}, {"measurement": "IC (TGI)", "setting": "HCT-15; HCT-15, read-out: Log10 TGI (converted)", "result": "> 100", "unit": "µM"}, {"measurement": "GI50", "setting": "HT29; HT-29, HT29, read-out: Log10 GI50 (converted)", "result": "> 100", "unit": "µM"}, {"measurement": "IC (TGI)", "setting": "HT29; HT-29, HT29, read-out: Log10 TGI (converted)", "result": "> 100", "unit": "µM"}, {"measurement": "GI50", "setting": "KM12; KM12, read-out: Log10 GI50 (converted)", "result": 0.537, "unit": "µM"}, {"measurement": "IC (TGI)", "setting": "KM12; KM12, read-out: Log10 TGI (converted)", "result": "> 100", "unit": "µM"}, {"measurement": "GI50", "setting": "SF-268; SF-268, read-out: Log10 GI50 (converted)", "result": "> 100", "unit": "µM"}, {"measurement": "IC (TGI)", "setting": "SF-268; SF-268, read-out: Log10 TGI (converted)", "result": "> 100", "unit": "µM"}, {"measurement": "GI50", "setting": "SNB-19; SNB-19, read-out: Log10 GI50 (converted)", "result": 42.7, "unit": "µM"}, {"measurement": "IC (TGI)", "setting": "SNB-19; SNB-19, read-out: Log10 TGI (converted)", "result": "> 100", "unit": "µM"}, {"measurement": "GI50", "setting": "U251; U-251, U251, read-out: Log10 GI50 (converted)", "result": 0.0355, "unit": "µM"}, {"measurement": "IC (TGI)", "setting": "U251; U-251, U251, read-out: Log10 TGI (converted)", "result": 12, "unit": "µM"}, {"measurement": "GI50", "setting": "MALME-3M; [2]", "result": "> 100", "unit": "µM"}, {"measurement": "IC (TGI)", "setting": "MALME-3M; [3]", "result": "> 100", "unit": "µM"}, {"measurement": "GI50", "setting": "SK-MEL-28; SK-MEL-28, read-out: Log10 GI50 (converted)", "result": "> 100", "unit": "µM"}, {"measurement": "IC (TGI)", "setting": "SK-MEL-28; SK-MEL-28, read-out: Log10 TGI (converted)", "result": "> 100", "unit": "µM"}, {"measurement": "GI50", "setting": "OVCAR-3; OVCAR-3, read-out: Log10 GI50 (converted)", "result": 0.0195, "unit": "µM"}, {"measurement": "IC (TGI)", "setting": "OVCAR-3; OVCAR-3, read-out: Log10 TGI (converted)", "result": 0.0676, "unit": "µM"}, {"measurement": "GI50", "setting": "ACHN; [2]", "result": "> 100", "unit": "µM"}, {"measurement": "IC (TGI)", "setting": "ACHN; [3]", "result": "> 100", "unit": "µM"}, {"measurement": "GI50", "setting": "CAKI-1; CAKI-1, read-out: Log10 GI50 (converted)", "result": 0.0126, "unit": "µM"}, {"measurement": "IC (TGI)", "setting": "CAKI-1; CAKI-1, read-out: Log10 TGI (converted)", "result": 0.123, "unit": "µM"}, {"measurement": "GI50", "setting": "RXF-393; RXF-393, read-out: Log10 GI50 (converted)", "result": "> 100", "unit": "µM"}, {"measurement": "IC (TGI)", "setting": "RXF-393; RXF-393, read-out: Log10 TGI (converted)", "result": "> 100", "unit": "µM"}, {"measurement": "GI50", "setting": "TK-10; TK-10, read-out: Log10 GI50 (converted)", "result": 0.0282, "unit": "µM"}, {"measurement": "IC (TGI)", "setting": "TK-10; TK-10, read-out: Log10 TGI (converted)", "result": 0.0813, "unit": "µM"}, {"measurement": "GI50", "setting": "PC-3; PC-3, read-out: Log10 GI50 (converted)", "result": "> 100", "unit": "µM"}, {"measurement": "IC (TGI)", "setting": "PC-3; PC-3, read-out: Log10 TGI (converted)", "result": "> 100", "unit": "µM"}, {"measurement": "GI50", "setting": "MDA-MB-231/ATCC; [2]", "result": "> 100", "unit": "µM"}, {"measurement": "IC (TGI)", "setting": "MDA-MB-231/ATCC; [3]", "result": "> 100", "unit": "µM"}, {"measurement": "GI50", "setting": "NCI-H522; NCI-H522, read-out: Log10 GI50 (converted)", "result": "> 100", "unit": "µM"}, {"measurement": "IC (TGI)", "setting": "NCI-H522; NCI-H522, read-out: Log10 TGI", "result": "> 100", "unit": "µM"}, {"measurement": "CC50", "setting": "[1]; read-out: Log10 LC50, MG_MID, mean over the panel (converted)", "result": 69.2, "unit": "µM"}, {"measurement": "CC50", "setting": "[1]; read-out: Log10 LC50, row head (cell line) not given (converted)", "result": "> 100", "unit": "µM"}, {"measurement": "Log10 TGI", "setting": "[1]; listed as head (cell line) not given", "result": ">−4.00"}, {"measurement": "Log10 GI50, MG_MID", "setting": "[1]; mean over the panel", "result": "−5.16"}, {"measurement": "Log10 TGI, MG_MID", "setting": "[1]; mean over the panel", "result": "−4.48"}, {"measurement": "Log10 TGI, Delta", "setting": "[1]; whole panel", "result": 2.89}, {"measurement": "Log10 TGI, Range", "setting": "[1]; whole panel", "result": 3.37}]}]}
